{"source": "patent US20190314436A1", "about": "“PHARMACEUTICAL COMPOSITION FOR PREVENTION OR TREATMENT OF LIVER CANCER AND HEALTH FUNCTIONAL FOOD” (KOREA BIO MEDICAL SCIENCE INSTITUTE CO., LTD, priority 2016, published 2019)", "key": {"[1]": {"system": "HCCLM3 cells", "experiment": "Cell death in hyper-metastatic HCC cell line", "assay_type": "cell-based", "conditions": "HCCLM3, 16 μM, 48 hours", "source_text": "By treatment of HCCLM3 cells using WSY-1 or WSY-3 extract in ethanol to identify cell death effects, in vitro anti-cancer effects of the natural extracts on cell lines having different sorafenib sensitivities were investigated."}, "[2]": {"system": "Hepa1-6 hepatocellular carcinoma", "experiment": "Orthotopic HCC model, Hepa1-6 via liver portal vein", "assay_type": "in vivo, C57/BL6 mouse", "conditions": "WSY-1 100 mpk, sorafenib 30 mpk, oral daily", "method": "In the present study, based on results of the primary in vivo efficacy validation experiment and preliminary experiment, the following experiment conditions were set up and the secondary validation experiment was implemented.\nAdministered cell/administration route: 5×10^5 Hepa1-6-GFP cells/liver portal vein\nDose/administration route/dosing frequency: WSY-1 100 mpk, sorafenib 30 mpk/oral administration/daily\n5×10^5 Hepa1-6GFP cells were administered to the liver portal vein of each 6-week-old C57/BL6 mouse. 3 days later, the mice were randomly grouped, followed by administration of WSY-1 and sorafenib for 3 weeks.\nDuring 3 weeks administration period, death (mortality) due to tumorigenesis was induced in the following experimental groups. After termination of the administration, survived mice were sacrificed and analyzed for anti-cancer effects."}, "[3]": {"system": "liver cancer", "conditions": "cited from earlier work"}, "[4]": {"system": "HCCLM3 hepatocellular carcinoma", "experiment": "Orthotopic HCC model, HCCLM3 via liver portal vein", "assay_type": "in vivo, Balb/c nu/nu mouse", "conditions": "30 mpk oral daily, 8 weeks", "source_text": "Establishment of Hepatocellular Carcinoma (HCC) in Small Animal Models\nIn order to induce HCC in a small animal model, a method of injecting chemicals such as DEN or a method of directly injecting HCC cells into the model is used. Although DEN treatment is convenient in view of experiment, this process entails a disadvantage in that a long period of time (about 50 weeks) is required for generation of tumors (‘tumorigenesis’). Therefore, in order to efficiently verify in vivo anticancer effects of natural extracts for a short period of time, an orthotopic implantation model of directly injecting HCC cells into the liver of a mouse was implemented.\nThe orthotopic implantation model is a method of inducing formation of cancer in liver tissues by directly injecting HCC cell lines such as Huh7 or HCCLM3 into hepatic portal vein or mesenchyma (liver lobe) of the mouse, and takes about 8 weeks to form tumors, which is considerably shorter than DEN, thus being properly used.\nEfficacies of the Ulmi cortex extract (WSY-0), Nardostachys jatamansi extract (WSY-1), Lophatheri Herba extract (WSY-3) or Torilis Japonica extract (WSY-37) on HCC formation and suppression thereof have been validated through liver gross, H & E staining and serum analysis. […]"}, "[5]": {"system": "Huh7 cells", "experiment": "MTT assay, liver cancer growth inhibition / cell death", "assay_type": "cell-based", "conditions": "48 hours", "method": "Hepatoma cell proliferation inhibitory efficacies of the Ulmi cortex extract (WSY-0), Nardostachys jatamansi extract (WSY-1), Lophatheri Herba extract (WSY-3) and Torilis japonica extract (WSY-37) in target cells or mice treated with the same were validated by MTT assay and effective concentrations thereof were determined.\nIn vitro liver cancer growth inhibitory abilities of four (4) natural products (WSY-0, WSY-1, WSY-3, and WSY-37) were verified by the MTT assay.\nWith respect to the 4 types of natural products, total 8 types of extracts were prepared through hydrothermal extraction and ethanol extraction, respectively. These extracts were identified to have in vitro liver cancer growth inhibitory ability in 5 types of liver cancer cell lines (Huh7, HepG2, Hep3B, PLC/PRF5, and SK-hep1).\nFurther, in treatment using each of three ethanol extracts in an amount of 200 μg/mL except WSY-37, the cell growth inhibitory ability was identified in 4 types of liver cancer cell lines except Hep G2 cells.\nWhen treating Huh7 cells with sorafenib for 48 hours, it was identified that about 60% cell death was induced with 2 μM of sorafenib and about 80% cell death was induced with 4 μM of sorefenib, respectively (see FIG. 1)."}}}
{"smiles": "CNC(=O)c1cc(Oc2ccc(NC(=O)Nc3ccc(Cl)c(C(F)(F)F)c3)cc2)ccn1", "note": "[sorafenib]", "values": [{"measurement": "apoptotic effects", "setting": "[1]", "value": "≤ 50", "unit": "%"}, {"measurement": "death (mortality) due to tumorigenesis", "setting": "[2]; 3 weeks administration", "value": "4 out of 13"}, {"measurement": "liver weight/body weight vs mice injected with Hepa1-6 cells only", "setting": "[2]; 3 weeks", "value": "significantly decreased"}, {"measurement": "patients with partial response", "setting": "[3]; 137 patients, Phase 2 clinical trials", "value": "≤ 5", "unit": "%"}, {"measurement": "extension of life compared to placebo dose group", "setting": "[3]; orally administered", "value": "~3", "unit": "months"}, {"measurement": "liver weight/body weight vs mice with HCCLM3 only", "setting": "[4]", "value": "decreased"}, {"measurement": "cell death", "setting": "[5]; Huh7, 2 μM", "value": "about 60%"}, {"measurement": "cell death", "setting": "[5]; Huh7, 4 μM", "value": "about 80%"}]}
